Reference: patent US7728019B2, “Biphenylcarboxamides” (priority 2002, dated 2010)

Tests used:
[1] = logP determination by HPLC on reverse-phase column (C 18), acidic range pH 2.3; format: physicochemical; conditions: for chromatographic logP: reverse-phase HPLC column (C 18)
Procedure: The logP values given in Table 1 were determined with EEC Directive 79/831 Annex V.A8 by HPLC (High Performance Liquid Chromatography) on a reverse-phase column (C 18). Temperature: 43° C. Mobile phases for the determination in the acidic range (pH 2.3): 0.1% aqueous phosphoric acid, acetonitrile; linear gradient from 10% acetonitrile to 90% acetonitrile. Calibration was carried out using unbranched alkan-2-ones (having 3 to 16 carbon atoms) with known logP values (determination of the logP values by the retention times using linear interpolation between two successive alkanones).

[2] = system: Puccinia recondita; assay: Puccinia test (wheat)/protective; format: in vivo; conditions: 240 h, wheat plants, protective, application rate 500 g/ha, evaluation 10 days after inoculation, read-out: Efficacy in %
Procedure: (§1) To produce a suitable preparation of active compound, 1 part by weight of active compound is mixed with the stated amounts of solvent and emulsifier, and the concentrate is diluted with water to the desired concentration.
To test for protective activity, young plants are inoculated with a spore suspension of Puccinia recondita in a 0.1% strength aqueous agar solution. After the spray coating has dried on, the plants are sprayed with the preparation of active compound at the stated application rate. The plants remain in an incubation cabin at 20° C. and 100% relative atmospheric humidity for 24 hours.
The plants are then placed in a greenhouse at a temperature of about 20° C. and a relative atmospheric humidity of 80% to promote the development of rust pustules.
(§2) Evaluation is carried out 10 days after the inoculation. 0% means an efficacy which corresponds to that of the control, whereas an efficacy of 100% means that no infection is observed.

[3] = system: Alternaria solani; assay: Alternaria test (tomato)/protective; format: in vivo; conditions: tomato plants, protective; application rate 750 g/ha; evaluation 7 days after inoculation
Procedure: as §1
To test for protective activity, young tomato plants are sprayed with the preparation of active compound at the stated application rate. 1 day after the treatment, the plants are inoculated with a spore suspension of Alternaria solani and then remain at 100% relative atmospheric humidity and 20° C. for 24 hours. The plants then remain at 96% relative atmospheric humidity and a temperature of 20° C.
Evaluation is carried out 7 days after the inoculation. 0% means an efficacy which corresponds to that of the control, whereas an efficacy of 100% means that no infection is observed.

[4] = system: apple scab pathogen Venturia inaequalis; assay: Venturia test (apple)/protective; format: in vivo; conditions: apple plants, protective; application rate 100 g/ha; evaluation 10 days after inoculation
Procedure: (§3) To produce a suitable preparation of active compound, 1 part by weight of active compound is mixed with the stated amounts of solvents and emulsifier, and the concentrate is diluted with water to the desired concentration.
To test for protective activity, young plants are sprayed with the preparation of active compound at the stated application rate. After the spray coating has dried on, the plants are inoculated with an aqueous conidia suspension of the apple scab pathogen Venturia inaequalis and then remain in an incubation cabin at about 20° C. and 100% relative atmospheric humidity for 1 day.
The plants are then placed in a greenhouse at about 21° C. and a relative atmospheric humidity of about 90%.
as §2

[5] = system: Botrytis cinerea; assay: Botrytis test (bean)/protective; format: in vivo; conditions: 48 h, bean plants, protective, application rate 500 g/ha, evaluation 2 days after inoculation, read-out: Efficacy in %
Procedure: as §3
To test for protective activity, young plants are sprayed with the preparation of active compound at the stated application rate. After the spray coating has dried on, 2 small pieces of agar colonized by Botrytis cinerea are placed onto each leaf. The inoculated plants are placed in a dark chamber at about 20° C. and 100% relative atmospheric humidity.
2 days after the inoculation, the size of the infected areas on the leaves is evaluated. 0% means an efficacy which corresponds to that of the control, whereas an efficacy of 100% means that no infection is observed.

[6] = HPLC, C 18 reverse-phase, 43° C.

logP (pH 2.3) [1, 6] | Compound | also measured
3.95 | CC#CCO/N=C(/C)c1ccc(-c2ccccc2NC(=O)c2ccoc2C)cc1 [Compound 50] | 
3.48 | CC#CCO/N=C(/C)c1ccc(-c2ccccc2NC(=O)c2cccnc2Cl)cc1 [Compound 41] | 
4.14 | C=CCO/N=C(/C)c1ccc(-c2ccccc2NC(=O)c2ccoc2C)cc1 [Compound 38] | 
4.15 | C=CC(C)O/N=C(/C)c1ccc(-c2ccccc2NC(=O)c2cn(C)nc2C(F)(F)F)cc1 (stereo not shown) [Compound 46] | 
2.89 | C=CC(C)O/N=C(/C)c1ccc(-c2ccccc2NC(=O)c2cccnc2Cl)cc1 (stereo not shown) [Compound 42] | 
2.92 | C#CCO/N=C/c1ccc(-c2ccccc2NC(=O)c2cccnc2Cl)cc1 [Compound 82] | 
2.75 | C#CCO/N=C(\C)c1ccc(-c2ccccc2NC(=O)c2cn(C)nc2C)cc1 [Compound 78] | 
3.16 | C#CCO/N=C(\C)c1ccc(-c2ccccc2NC(=O)c2cccnc2Cl)cc1 [Compound 68] | 
3.83 | C#CCO/N=C(\C)c1ccc(-c2ccccc2NC(=O)c2ccccc2C(F)(F)F)cc1 [Compound 73] | 
3.59 | C#CCO/N=C(\C)c1ccc(-c2ccccc2NC(=O)c2ccoc2C)cc1 [Compound 77] | 
4.52 | C=CC(C)O/N=C(/C)c1ccc(-c2ccccc2NC(=O)c2ccoc2C)cc1 (stereo not shown) [Compound 47] | 
3.73 | C#CCO/N=C(\C)c1ccc(-c2ccccc2NC(=O)c2ccccc2Cl)cc1 [Compound 81] | 
3.81 | C/C(=N/OCC=C(Cl)Cl)c1ccc(-c2ccccc2NC(=O)c2sc(C)nc2C(F)(F)F)cc1 [Compound 62] | 
4.65 | C=CC(C)O/N=C(/C)c1ccc(-c2ccccc2NC(=O)c2ccccc2C(F)(F)F)cc1 (stereo not shown) [Compound 59] | 
3.74 | C#CCO/N=C(\C)c1ccc(-c2ccccc2NC(=O)c2ccccc2Br)cc1 [Compound 80] | 
3.52 | C=C(C)CO/N=C(/C)c1ccc(-c2ccccc2NC(=O)c2cn(C)nc2C)cc1 [Compound 52] | 
4.41 | C=CC(C)O/N=C(/C)c1ccc(-c2ccccc2NC(=O)c2cn(C)cc2C(F)(F)F)cc1 (stereo not shown) [Compound 57] | 
3.48 | C#CCO/N=C/c1ccc(-c2ccccc2NC(=O)c2sc(C)nc2C(F)(F)F)cc1 [Compound 83] | 

More lines, now with the values behind:

Compound | logP (pH 2.3) [1, 6] | also measured
C#CCO/N=C(\C)c1ccc(-c2ccccc2NC(=O)c2sc(C)nc2C(F)(F)F)cc1 [Compound 67] | 3.72 | 
C=C(C)CO/N=C(/C)c1ccc(-c2ccccc2NC(=O)c2cccnc2Cl)cc1 [Compound 60] | 3.95 | 
CC#CCO/N=C(/C)c1ccc(-c2ccccc2NC(=O)c2c(C)nn(C)c2F)cc1 [Compound 37] | 3.63 | 
C#CCO/N=C(\C)c1ccc(-c2ccccc2NC(=O)C2=C(C)OCCS2)cc1 [Compound 74] | 3.81 | 
CC(=O)c1ccc(-c2ccccc2N)cc1 [XIV-1, 1-(2′-aminobiphenyl-4-yl)ethanone] |  | chromatographic logP [1]: 1.8
C#CCO/N=C(/C)c1ccc(-c2ccccc2NC(=O)c2cn(C)nc2C(F)F)cc1 [Compound 72] |  | chromatographic logP [1, 6]: 3.14; pest or weed control at 500 g/ha [2]: 100%
C=CCO/N=C(\C)c1ccc(-c2ccccc2NC(=O)c2c(C)nn(C)c2F)cc1 [Compound 17, N-(4′-{1-(allyloxyimino)-ethyl}-biphenyl-2-yl)-5-fluoro-1,3-dimethyl-1H-pyrazole-4-carboxamide] |  | chromatographic logP [1]: 3.8
C=CCO/N=C\c1ccc(-c2ccccc2NC(=O)c2cccnc2Cl)cc1 [Compound 12] |  | chromatographic logP [1, 6]: 3.3; Efficacy in % [3]: 100%
C#CCO/N=C(\C)c1ccc(-c2ccccc2NC(=O)c2ccccc2I)cc1 [Compound 79] | 3.81 | 
C#CCO/N=C(/C)c1ccc(-c2ccccc2NC(=O)c2sc(C)nc2C(F)F)cc1 [Compound 69] |  | chromatographic logP [1, 6]: 3.45; pest or weed control at 500 g/ha [2]: 100%
C=C(C)CO/N=C(/C)c1ccc(-c2ccccc2NC(=O)c2ccoc2C)cc1 [Compound 51] | 4.51 | 
C/C(=N/OCC=C(Cl)Cl)c1ccc(-c2ccccc2NC(=O)c2cccnc2Cl)cc1 [Compound 63, 2-chloro-N-{4′-[1-(3,3-dichloroallyloxyimino)ethyl]-biphenyl-2-yl}nicotinamide] |  | chromatographic logP [1]: 4.43
C#CCO/N=C(\C)c1ccc(-c2ccccc2NC(=O)c2cn(C)cc2C(F)(F)F)cc1 [Compound 75] | 3.6 | 
C#CCO/N=C(\C)c1ccc(-c2ccccc2NC(=O)c2cn(C)nc2C(F)(F)F)cc1 [Compound 70] | 3.36 | 
C/C(=N\OCC=C(Cl)Cl)c1ccc(-c2ccccc2NC(=O)c2cn(C)nc2C)cc1 [Compound 54, N-(4′-{1-[3,3-dichloroallyloxyimino]ethyl}biphenyl-2-yl)-1,3-dimethyl-1H-pyrazole-4-carboxamide] |  | chromatographic logP [1]: 3.97
C#CCO/N=C(\C)c1ccc(-c2ccccc2NC(=O)c2c(C)nn(C)c2F)cc1 [Compound 71] | 3.27 | 

Compound | logP (pH 2.3) [1, 6] | also measured
C=CC(C)O/N=C(/C)c1ccc(-c2ccccc2NC(=O)c2cn(C)nc2C)cc1 (stereo not shown) [Compound 53] | 3.53 | 
Cn1cc(C(=O)Nc2ccccc2-c2ccc(/C=N\OCC3CC3)cc2)c(C(F)(F)F)n1 [Compound 4] |  | chromatographic logP [1, 6]: 3.77; Efficacy in % [4]: 91%
C=C(C)CO/N=C(/C)c1ccc(-c2ccccc2NC(=O)c2sc(C)nc2C(F)(F)F)cc1 [Compound 44] | 3.49 | 
O=C(Nc1ccccc1-c1ccc(/C=N\OCC2CC2)cc1)c1cccnc1Cl [Compound 3] |  | chromatographic logP [1, 6]: 3.57; pest or weed control at 500 g/ha [5]: 95%
C=CCO/N=C(/C)c1ccc(-c2ccccc2NC(=O)C2=C(C)OCCS2)cc1 [Compound 39] | 4.38 | 
Cc1nc(C(F)F)c(C(=O)Nc2ccccc2-c2ccc(/C=N\OCC3CC3)cc2)s1 [Compound 8] |  | chromatographic logP [1, 6]: 3.87; Efficacy in % [4]: 100%; pest or weed control at 500 g/ha [5]: 85%
C/C(=N/OCC=C(Cl)Cl)c1ccc(-c2ccccc2NC(=O)c2ccoc2C)cc1 [Compound 61] | 4.98 | 
C=C(C)CO/N=C(/C)c1ccc(-c2ccccc2NC(=O)c2c(C)nn(C)c2F)cc1 [Compound 36] | 4.18 | 
Cn1cc(C(=O)Nc2ccccc2-c2ccc(/C=N\OCC3CC3)cc2)c(C(F)F)n1 [Compound 7] |  | chromatographic logP [1, 6]: 3.53; Efficacy in % [4]: 100%; pest or weed control at 500 g/ha [5]: 96%; pest or weed control at 500 g/ha [2]: 100%
CC#CCO/N=C(/C)c1ccc(-c2ccccc2NC(=O)c2cn(C)nc2C(F)(F)F)cc1 [Compound 40] |  | chromatographic logP [1, 6]: 3.67; pest or weed control at 500 g/ha [2]: 100%
CC(=O)c1ccc(-c2ccccc2NC(=O)c2cccnc2Cl)cc1 [VIII-1, N-(4′-acetyl-biphenyl-2-yl)-2-chloronicotinamide] |  | chromatographic logP [1]: 2.12
C=CCO/N=C\c1ccc(-c2ccccc2NC(=O)c2cn(C)nc2C(F)F)cc1 [Compound 10] |  | chromatographic logP [1, 6]: 3.32; Efficacy in % [4]: 100%; pest or weed control at 500 g/ha [5]: 95%; pest or weed control at 500 g/ha [2]: 100%
C=C(C)CO/N=C(/C)c1ccc(-c2ccccc2NC(=O)c2cn(C)nc2C(F)(F)F)cc1 [Compound 48] | 4.14 | 
C=C(C)CO/N=C(/C)c1ccc(-c2ccccc2NC(=O)c2ccccc2C(F)(F)F)cc1 [Compound 58] | 4.64 | 
CC#CCO/N=C(/C)c1ccc(-c2ccccc2NC(=O)c2cn(C)nc2C)cc1 [Compound 55] |  | chromatographic logP [1, 6]: 3.06; pest or weed control at 500 g/ha [2]: 100%
C=CCO/N=C/c1ccc(-c2ccccc2NC(=O)c2sc(C)nc2C(F)F)cc1 [Compound 9, N-[4′-(allyloxyimino-methyl)-biphenyl-2-yl]-4-difluoromethyl-2-methylthiazole-5-carboxamide] |  | chromatographic logP [1, 6]: 3.65; Efficacy in % [4]: 100%; pest or weed control at 500 g/ha [5]: 95%
